12 molecules from ChEMBL document CHEMBL1201862, “PubChem BioAssay data set” (2004) can be followed below.

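Values below derive from 48-hour exposures of cells grown in 96-well plates, with endpoints linearly interpolated between the two concentrations bracketing the appropriate inhibition level. GI50 is the concentration that inhibits growth by half.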 Activity calls are given as the source filed them. No stated cut-off is given here; in the data, active = GI50 up to about 1.1 µM and inactive = higher.

What all share (experiment): inhibition of tumour cell growth, NCI panel, 48 h
In assay [1] the test system is HT-29.
In assay [2] the test system is OVCAR-5.
The test system of assay [3] is NCI-H522.
Assay [4] deals with SK-OV-3.
The subject of assay [5] is SF-539.
Assay [6] deals with UACC-257.
Assay [7] has as its system EKVX.
Assay [8] concerns RPMI-8226.
For assay [9], the system named is OVCAR-3.
Assay [10] relates to SN12C.
For assay [11], the system named is UACC-62.
The test system of assay [12] is HL-60.
The subject of assay [13] is KM12.
Assay [14] relates to MOLT-4.
The test system of assay [15] is HCT-116.
Assay [16] concerns SK-MEL-28.
Assay [17] concerns SF-268.
Assay [18] has as its system COLO 205.

On to `C/C(=C\C(C[C@](C)(O)C(O)CCC#C[Si](C)(C)C)S(=O)(=O)c1ccccc1)CC/C=C/CO[Si](C)(C)C(C)(C)C` (stereo partly specified), for which the GI50 in assay [1] is 3.57 µM (inactive); in [2], 13.7 µM (inactive); in [3], 16.2 µM (inactive); in [4], 22.6 µM (inactive); in assay [5], 20 µM (inactive); in assay [6], 17.3 µM (inactive). Besides, the GI50 was 19.7 µM (inactive) in assay [7]; 10.1 µM (inactive) in assay [8]; 16 µM (inactive) in assay [9]; 6.24 µM (inactive) in assay [10]; 17.4 µM (inactive) in [11]; 14.9 µM (inactive) in assay [12]. Moreover, the GI50 in [13] is 16.8 µM (inactive); in assay [14], 6.95 µM (inactive); in [15] it was 13.4 µM (inactive).
Take `C=C1C(=O)C23C(CC(OC(C)=O)C1[C@@H]2OC(C)=O)C1(C)C(OC(C)=O)CCC(C)(C)C1C[C@@H]3OC(C)=O` (stereo partly specified): the GI50 is 1.01 µM (active) in assay [1]; 1.86 µM (inactive) in assay [2]; 0.453 µM (active) in assay [3]; 1.87 µM (inactive) in assay [16]; 1.97 µM (inactive) in [4]; 1.76 µM (inactive) in assay [5]. Besides, the GI50 in assay [6] was 1.74 µM (inactive); in assay [7] it was 3.31 µM (inactive); in [8] it was 1.48 µM (inactive); in assay [9] it was 1.66 µM (inactive); in [10], 1.46 µM (inactive); in [11] it was 1.9 µM (inactive). Moreover, the GI50 in assay [12] is 0.0771 µM (active); in [17] it was 1.56 µM (inactive); in [13], 1.91 µM (inactive); in [14], 0.365 µM (active); in assay [15] it was 1.62 µM (inactive).
Consider `C#C[C@]1(O)CCC2C3CCc4cc(Oc5nc(F)nc(-n6c(C)nc7cc8ccccc8cc76)n5)ccc4C3CCC21C` (stereo partly specified), for which the GI50 in assay [1] was 31 µM (inactive); in [3], 37.3 µM (inactive); in [16] it was > 10 µM (inactive); in assay [18], 20.6 µM (inactive); in assay [4], 62.1 µM (inactive); in assay [5], 31.6 µM (inactive). In addition, the GI50 in assay [6] is 86.5 µM (inactive); in [7], 9.35 µM (inactive); in assay [8], 38.2 µM (inactive); in assay [9], 50.1 µM (inactive); in assay [10], 37.5 µM (inactive); in assay [11], 29.2 µM (inactive). The GI50 in assay [12] was 31.1 µM (inactive); in assay [17] it was 47.6 µM (inactive); in assay [13] it was 32.7 µM (inactive); in assay [14], 27.4 µM (inactive); in assay [15] it was 32.8 µM (inactive).
With `Cc1cc(C)c(-c2noc(-c3ccc(Cl)cc3)c2C2=NCCCN2)c(C)c1`, the GI50 in [1] is 13.5 µM (inactive); in assay [2], 31.6 µM (inactive); in assay [3] it was 20 µM (inactive); in assay [16], 14.8 µM (inactive); in [18], 13.8 µM (inactive); in [4] it was 18.4 µM (inactive). Besides, the GI50 in [5] was 14.1 µM (inactive); in [6] it was 15.1 µM (inactive); in [7] it was 18 µM (inactive); in [8], 16.2 µM (inactive); in [9] it was 28 µM (inactive); in assay [10], 19.1 µM (inactive). Moreover, the GI50 in assay [11] is 16.3 µM (inactive); in assay [12] it was 13.2 µM (inactive); in assay [17], 11.3 µM (inactive); in assay [13], 23 µM (inactive); in [14] it was 16.8 µM (inactive); in assay [15], 4.57 µM (inactive).
`[O-][S+]1c2ccccc2N=C(c2ccc3ccccc3c2)CC1C1=CC=CCC1` (stereo unspecified): the GI50 in assay [1] was 16.5 µM (inactive); in assay [2] it was 18.9 µM (inactive); in [3] it was 16.9 µM (inactive); in assay [16], 18.2 µM (inactive); in assay [18], 20.5 µM (inactive); in [4] it was 30.5 µM (inactive). Further, the GI50 was 21.9 µM (inactive) in assay [5]; 18.3 µM (inactive) in assay [6]; 22.7 µM (inactive) in [7]; 8.75 µM (inactive) in [8]; 16.9 µM (inactive) in assay [9]; 17.4 µM (inactive) in [10]. The GI50 is 15.7 µM (inactive) in [11]; 17.6 µM (inactive) in assay [12]; 25.8 µM (inactive) in [17]; 14.9 µM (inactive) in assay [13]; 13.7 µM (inactive) in assay [14].
As to `Fc1ccc2c(c1)cc1ccc3cccc4ccc2c1c34`, the GI50 in assay [1], in [2], in assay [3], in [16], in assay [18] and in assay [4] was > 100 µM (inactive) in each case. Also, the GI50 is > 100 µM (inactive) in [5]; > 100 µM (inactive) in assay [6]; 5.02 µM (inactive) in assay [7]; > 100 µM (inactive) in assay [9]; > 100 µM (inactive) in assay [10]; > 100 µM (inactive) in assay [11]. In addition, the GI50 in assay [12], in assay [17], in [13], in assay [14] and in [15] was > 100 µM (inactive) throughout.
As to `c1cnc2c(c1)-n1cccc1C1(CCOCC1)NN2`, the GI50 in assay [1], in assay [3], in assay [16], in [18], in [4] and in [5] was > 100 µM (inactive) each time. Besides, the GI50 in assay [7], in assay [8], in assay [9], in assay [10], in assay [12] and in assay [17] was > 100 µM (inactive) throughout. For the same molecule, the GI50 in [13], in [14] and in assay [15] was > 100 µM (inactive) throughout.
Consider `CC1=Nn2c(nnc2-c2ccc(Cl)cc2)NC(C)(C)C1`, for which the GI50 in assay [1], in [2], in assay [3], in assay [16], in assay [18] and in assay [4] was > 100 µM (inactive) in each case. Besides, the GI50 in [5], in assay [6], in assay [7], in [8], in assay [9] and in [11] was > 100 µM (inactive) each time. Besides, the GI50 in assay [12], in [17], in assay [13] and in assay [14] was > 100 µM (inactive) each time.
With `O=c1n(-c2ccccc2)c(=O)n2n1C1C=CC2C2C(C1)C2(Cl)Cl` (stereo unspecified), the GI50 in assay [2], in assay [3], in [18], in [4], in assay [5] and in assay [6] was > 100 µM (inactive) each time. Also, the GI50 in [7], in assay [9], in [10], in [11], in assay [12] and in [17] was > 100 µM (inactive) in each case. Besides, the GI50 in assay [13], in assay [14] and in assay [15] was > 100 µM (inactive) each time.
Regarding `CN(CC(=O)O)S(=O)(=O)c1ccc2ccccc2c1`, the GI50 in assay [1], in assay [2], in assay [3], in assay [16], in assay [18] and in assay [4] was > 100 µM (inactive) throughout. The GI50 in assay [5], in assay [6], in assay [7], in [8], in [9] and in assay [10] was > 100 µM (inactive) throughout. Also, the GI50 in assay [11], in assay [12], in assay [17], in assay [13] and in assay [14] was > 100 µM (inactive) in each case.
In the case of `COc1ccc2ccc3c(c2c1)CN1CCc2cc(OC)c(OC)cc2C1C3` (stereo unspecified), the GI50 in assay [1], in assay [2], in [3], in [16], in [18] and in assay [4] was > 100 µM (inactive) in each case. Moreover, the GI50 in assay [5], in assay [6], in [7], in [8], in assay [9] and in assay [10] was > 100 µM (inactive) throughout. Moreover, the GI50 in assay [11], in assay [12], in [13] and in assay [14] was > 100 µM (inactive) in each case.
As to `CCCCCCCCCCCCC(Br)C(=O)SCCNC(=O)CCNC(=O)[C@@H](O)C(C)(C)COP(=O)(O)OP(=O)(O)OCC1OC(n2cnc3c(N)ncnc32)C(O)C1OP(=O)(O)O` (stereo partly specified), the GI50 in assay [1], in assay [2], in [3], in assay [16], in assay [18] and in [4] was > 56.5 µM (inactive) each time. For the same molecule, the GI50 in [5] was > 56.5 µM (inactive); in assay [6] it was 14.6 µM (inactive); in assay [7] it was > 56.5 µM (inactive); in [9], > 56.5 µM (inactive); in assay [10], > 56.5 µM (inactive); in [11], > 56.5 µM (inactive). Moreover, the GI50 in assay [12] is > 56.5 µM (inactive); in assay [17] it was > 56.5 µM (inactive); in assay [13], > 56.5 µM (inactive); in [15], 22 µM (inactive).
